Structures are written as SMILES.

A short description of the data set: log P determination by HPLC on reverse-phase column (EEC Directive 79/831 Annex V.A8). It is filed as physicochemical. An outline of the steps: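 Reverse-phase C18 HPLC at 43 °C, following EEC Directive 79/831 Annex V.A8. Acidic LC-MS used pH 2.7 eluents (0.1% aqueous formic acid and acetonitrile with 0.1% formic acid) on a 10–95% acetonitrile linear gradient. Log P was interpolated linearly from retention times against unbranched C3–C16 alkan-2-ones of known log P.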
For `Cc1cc(I)cc(C(=O)NCC#N)c1NC(=O)c1cc(Cn2cc(Cl)c(C(F)(F)C(F)(F)F)n2)nn1-c1ncccc1Cl` [I-1-246], the logP came to 3.85.
On to `CNC(=O)c1cc(I)cc(C)c1NC(=O)c1cc(Cn2ccc(C(F)(F)F)n2)nn1-c1ncccc1Cl` [I-1-247], for which the logP was 3.05.
Take `Cc1cc(I)cc(C(=O)NC(C)C)c1NC(=O)c1cc(Cn2ccc(C(F)(F)F)n2)nn1-c1ncccc1Cl` [I-1-248]: the logP stood at 3.51.
`Cc1cc(I)cc(C(=O)NC2CC2)c1NC(=O)c1cc(Cn2ccc(C(F)(F)F)n2)nn1-c1ncccc1Cl` [I-1-249]: the logP amounted to 3.27.
To `CCNC(=O)c1cc(I)cc(C)c1NC(=O)c1cc(Cn2ccc(C(F)(F)F)n2)nn1-c1ncccc1Cl` [I-1-250] belongs 3.28.
On to `Cc1cc(I)cc(C(=O)NCC#N)c1NC(=O)c1cc(Cn2ccc(C(F)(F)F)n2)nn1-c1ncccc1Cl` [I-1-251], for which the logP amounted to 3.04.
In turn, `Cc1cc(I)cc(C(=O)NC2CC2)c1NC(=O)c1cc(Cn2nc(C(F)(F)F)nc2C(F)(F)F)nn1-c1ncccc1Cl` [I-1-252] registered a logP of 3.81.
Regarding `Cc1cc(I)cc(C(=O)NCC2CC2)c1NC(=O)c1cc(Cn2nc(C(F)(F)F)nc2C(F)(F)F)nn1-c1ncccc1Cl` [I-1-253], the logP came to 4.13.
To `Cc1cc(I)cc(C(=O)NCC2CC2)c1NC(=O)c1cc(Cn2cc(Cl)c(C(F)(F)C(F)(F)F)n2)nn1-c1ncccc1Cl` [I-1-254] belongs 4.47; to `Cc1cc(I)cc(C(=O)N(C)C)c1NC(=O)c1cc(Cn2nc(C(F)(F)F)cc2C(F)(F)F)nn1-c1ncccc1Cl` [I-1-256], 3.84; to `CNC(=O)c1cc(Cl)cc(C)c1NC(=O)c1cc(Cn2nc(C(F)F)c([N+](=O)[O-])c2C(F)F)nn1-c1ncccc1Cl` [I-1-257], 2.92.
Compound `Cc1cc(Cl)cc(C(=O)NC(C)C)c1NC(=O)c1cc(Cn2nc(C(F)F)c([N+](=O)[O-])c2C(F)F)nn1-c1ncccc1Cl` [I-1-258] came in with a logP of 3.32.
As for `CC(C)NC(=O)c1cc(Cl)cc(Cl)c1NC(=O)c1cc(Cn2nc(C(F)F)c([N+](=O)[O-])c2C(F)F)nn1-c1ncccc1Cl` [I-1-259], the logP turned out to be 3.27.
The compound `Cc1cc(Cl)cc(C(=O)NC2CC2)c1NC(=O)c1cc(Cn2nc(C(F)F)c([N+](=O)[O-])c2C(F)F)nn1-c1ncccc1Cl` [I-1-260] showed a logP of 3.12.
`O=C(NC1CC1)c1cc(Cl)cc(Cl)c1NC(=O)c1cc(Cn2nc(C(F)F)c([N+](=O)[O-])c2C(F)F)nn1-c1ncccc1Cl` [I-1-261]: the logP was 3.08.
The compound `CSc1ncn(Cc2cc(C(=O)Nc3c(C)cc(Cl)cc3C(=O)NC(C)C)n(-c3ncccc3Cl)n2)n1` [I-1-262] yielded a logP of 2.31.
Next, `CSc1ncn(Cc2cc(C(=O)Nc3c(C)cc(Cl)cc3C(=O)NC3CC3)n(-c3ncccc3Cl)n2)n1` [I-1-263]: 2.13.
As to `CNC(=O)c1cc(Cl)cc(C)c1NC(=O)c1cc(Cn2cnc(SC)n2)nn1-c1ncccc1Cl` [I-1-265], the logP worked out at 1.94.
For `CNC(=O)c1cc(Cl)cc(Cl)c1NC(=O)c1cc(Cn2nc(C(F)F)c([N+](=O)[O-])c2C(F)F)nn1-c1ncccc1Cl` [I-1-266], the logP is recorded as 2.99.
Next, `Cc1cc(I)cc(C(=O)NC(C)C)c1NC(=O)c1cc(Cn2nc(C(F)F)c([N+](=O)[O-])c2C(F)F)nn1-c1ncccc1Cl` [I-1-267]: 3.67; `Cc1cc(I)cc(C(=O)NC2CC2)c1NC(=O)c1cc(Cn2nc(C(F)F)c([N+](=O)[O-])c2C(F)F)nn1-c1ncccc1Cl` [I-1-268]: 3.44; `Cc1cc(Cl)cc(C(=O)NC(C)C)c1NC(=O)c1cc(Cn2nc(C)c(Br)c2C)nn1-c1ncccc1Cl` [I-1-269]: 3.4.
`CNC(=O)c1cc(Cl)cc(C)c1NC(=O)c1cc(Cn2nc(C)c(Br)c2C)nn1-c1ncccc1Cl` [I-1-270] showed a logP of 2.95.
In turn, `Cc1cc(Cl)cc(C(=O)NC2CC2)c1NC(=O)c1cc(Cn2nc(C)c(Br)c2C)nn1-c1ncccc1Cl` [I-1-271] had a logP of 3.17.
`Cc1cc(I)cc(C(N)=O)c1NC(=O)c1cc(Cn2nc(C(F)(F)F)nc2C(F)(F)F)nn1-c1ncccc1Cl` [I-1-272] came in with a logP of 3.38.
In turn, `Cc1cc(I)cc(C(N)=O)c1NC(=O)c1cc(Cn2ccc(C(F)(F)F)n2)nn1-c1ncccc1Cl` [I-1-273] had a logP of 2.84.
`CCNC(=O)c1cc(I)cc(C)c1NC(=O)c1cc(Cn2cc(C(F)(F)C(F)(F)F)c(C(F)(F)C(F)(F)F)n2)nn1-c1ncccc1Cl` [I-1-274] registered a logP of 4.74.
For the compound `Cc1cc(I)cc(C(=O)NC2CC2)c1NC(=O)c1cc(Cn2cc(C(F)(F)C(F)(F)F)c(C(F)(F)C(F)(F)F)n2)nn1-c1ncccc1Cl` [I-1-275], the logP was determined as 4.71.
`Cc1cc(I)cc(C(=O)NC2CC2)c1NC(=O)c1cc(Cn2cc(Cl)c(C(F)(F)C(F)(F)F)n2)nn1-c1ncccc1Cl` [I-1-276] came in with a logP of 4.15.
Compound `CCNC(=O)c1cc(I)cc(C)c1NC(=O)c1cc(Cn2cc(Cl)c(C(F)(F)C(F)(F)F)n2)nn1-c1ncccc1Cl` [I-1-277] had a logP of 4.17.
On to `CNC(=O)c1cc(I)cc(C)c1NC(=O)c1cc(Cn2nc(C(F)F)c([N+](=O)[O-])c2C(F)F)nn1-c1ncccc1Cl` [I-1-278], for which the log partition coefficient (logP) is 3.25.
The compound `Cc1cc(I)cc(C(=O)NC2CCCC2)c1NC(=O)c1cc(Cn2nc(C(F)(F)F)nc2C(F)(F)F)nn1-c1ncccc1Cl` [I-1-279] yielded a logP of 4.47.
Consider `Cc1cc(I)cc(C(=O)NC2CCCCCCCCCCC2)c1NC(=O)c1cc(Cn2nc(C(F)(F)F)nc2C(F)(F)F)nn1-c1ncccc1Cl` [I-1-280], for which the logP is 6.56.
On to `Cc1cc(I)cc(C(=O)NC2CCCCC2)c1NC(=O)c1cc(Cn2nc(C(F)(F)F)nc2C(F)(F)F)nn1-c1ncccc1Cl` [I-1-281], for which the logP was determined as 4.54.
On to `Cc1cc(I)cc(C(=O)NC2CCC2)c1NC(=O)c1cc(Cn2nc(C(F)(F)F)nc2C(F)(F)F)nn1-c1ncccc1Cl` [I-1-282], for which the logP is 4.18.
In turn, `CCNC(=O)c1cc(I)cc(C)c1NC(=O)c1cc(Cn2nc(C(F)(F)F)nc2C(F)(F)F)nn1-c1ncccc1Cl` [I-1-283] registered a logP of 3.89.
Next, `Cc1cc(I)cc(C(=O)NC(C)C2CC2)c1NC(=O)c1cc(Cn2nc(C(F)(F)F)nc2C(F)(F)F)nn1-c1ncccc1Cl` (stereo not shown) [I-1-284]: 4.16; `Cc1cc(I)cc(C(=O)NC(C)(C)C)c1NC(=O)c1cc(Cn2nc(C(F)(F)F)nc2C(F)(F)F)nn1-c1ncccc1Cl` [I-1-285]: 4.23.
Take `Cc1cc(I)cc(C(=O)NC(C2CC2)C2CC2)c1NC(=O)c1cc(Cn2nc(C(F)(F)F)nc2C(F)(F)F)nn1-c1ncccc1Cl` [I-1-286]: the logP is recorded as 4.52.
Consider `Cc1cc(I)cc(C(=O)NC(C)C2CC2)c1NC(=O)c1cc(Cn2cc(Cl)c(C(F)(F)C(F)(F)F)n2)nn1-c1ncccc1Cl` (stereo not shown) [I-1-287], for which the logP amounted to 4.69.
Consider `Cc1cc(I)cc(C(=O)NC(C2CC2)C2CC2)c1NC(=O)c1cc(Cn2cc(Cl)c(C(F)(F)C(F)(F)F)n2)nn1-c1ncccc1Cl` [I-1-288], for which the logP was 4.79.
Compound `Cc1cc(I)cc(C(=O)NC(C)(C)C)c1NC(=O)c1cc(Cn2cc(Cl)c(C(F)(F)C(F)(F)F)n2)nn1-c1ncccc1Cl` [I-1-289] gave a logP of 4.63.
Turning to `CNC(=O)c1cc(Cl)cc(Cl)c1NC(=O)c1cc(Cn2nc(C(F)(F)F)nc2C(F)(F)F)nn1-c1ncccc1Cl` [I-1-290], the logP came to 3.40.

These data come from US8101550B2, “Anthranilic acid diamide derivative with hetero-aromatic and hetero-cyclic substituents” (Bayer Cropscience AG, priority 2006, dated 2012).
